The test system of series [1] is Human immunodeficiency virus 1. Description: Antiviral activity against drug-resistant HIV-1 harboring RT L100I mutant infected in human MT4 cells assessed as protection against virus-induced cytopathicity measured after 5 days post-infection by MTT assay. The conditions noted are these: Human immunodeficiency virus 1, MT4, 120 h. The format is functional, organism-based. On the technique in general: Damage to the host cells serves as the signal in cytopathic effect assays.

Series [2] has as its system Human immunodeficiency virus 1. As to the kind of experiment: Antiviral activity against drug-resistant HIV-1 harboring RT Y181C mutant infected in human MT4 cells assessed as protection against virus-induced cytopathicity measured after 5 days post-infection by MTT assay. In kind it is functional, organism-based. The conditions noted are these: Human immunodeficiency virus 1, MT4, 120 h.

Series [3] addresses Cytochrome P450 2C9 (Homo sapiens, UniProt P11712). As to the kind of experiment: Inhibition of CYP2C9 in human liver microsomes using diclofenac as substrate incubated for 15 to 45 mins by. In kind it is ADME, Microsome.
Series [4] can be described thus: Stability in human plasma assessed as compound remaining at 1 uM measured after 1 hr by LC-MS/MS analysis. The format is ADME, cell-free. The conditions noted are these: read-out: Stability.
Series [5] in a line: Stability in human plasma assessed as compound remaining at 1 uM measured after 2 hrs by LC-MS/MS analysis. The format is ADME, cell-free. The conditions noted are these: read-out: Stability.
A short description of series [6]: Drug metabolism in dog liver microsomes assessed as metabolic fraction at 1 uM measured up to 45 mins by LC/MS/MS analysis. The conditions noted are these: microsomes, 0.75 h, 1 µM. In kind it is ADME, Canis lupus familiaris, Microsome.
The nature of series [7]: MRT (0 to t) in Sprague-Dawley rat at 1 mg/kg, iv measured for 0.083 to 24 hrs by LC-MS/MS analysis. The conditions noted are these: in vivo, time 0.083-24 hrs. In kind it is ADME, organism-based.

Cytochrome P450 2C9, sequence (P11712 whole entry): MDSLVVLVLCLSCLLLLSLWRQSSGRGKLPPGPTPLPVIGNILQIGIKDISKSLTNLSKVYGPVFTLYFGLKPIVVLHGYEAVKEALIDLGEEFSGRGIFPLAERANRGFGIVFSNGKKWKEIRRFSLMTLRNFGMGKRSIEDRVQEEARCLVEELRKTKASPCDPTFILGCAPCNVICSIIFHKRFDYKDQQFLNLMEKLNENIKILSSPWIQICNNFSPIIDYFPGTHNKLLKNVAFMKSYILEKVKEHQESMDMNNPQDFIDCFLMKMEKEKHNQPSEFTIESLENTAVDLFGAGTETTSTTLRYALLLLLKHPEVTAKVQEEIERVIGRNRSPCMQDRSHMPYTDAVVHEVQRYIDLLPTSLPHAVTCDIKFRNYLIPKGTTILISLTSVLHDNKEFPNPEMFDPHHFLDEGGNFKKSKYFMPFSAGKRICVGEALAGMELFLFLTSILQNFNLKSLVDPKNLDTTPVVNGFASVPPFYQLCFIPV

A word on the EC50: it is the concentration giving half of the maximal effect. One may read the IC50 as the concentration at which inhibition is half-maximal. One may read the MRT last as the average time that molecules of a dose stay in the body. Consider `[2H]C([2H])([2H])c1cc(C#N)cc(C([2H])([2H])[2H])c1Oc1nc(NC2CCN(Cc3ccc(S(N)(=O)=O)cc3)CC2)nc2ccsc12`, for which the EC50 was 2.61 nM in series [1] and 5.86 nM in series [2]. In series [3], this molecule had an IC50 greater than 10000 nM. In addition, in series [4], the remaining at 1 h, 1 µM came out at 96.5%. For the same molecule, in series [5], the remaining at 2 h, 1 µM is 92.7%. Besides, the Fm in series [6] worked out at 17.3%. In series [7], this molecule yielded an MRT last of 49.2 min.

The record behind these values is ChEMBL document CHEMBL6134848, “Deuteration Strategy-Inspired Design of Novel Diarylpyrimidine Derivatives as Potent Non-Nucleoside Reverse Transcriptase Inhibitors Featuring Improved Efficacy, Selectivity, and Druggability” (J Med Chem, 2025).
